# Earlier results in US20100022769A1, “NOVEL POLYNITROGENATED SYSTEMS AS ANTI-HIV AGENTS” (priority 2006, published 2010).
# Columns and labels:
# [1] = test system: X4 strain of HIV; details: subject infected with a X4 strain of HIV
# [2] = test system: CCR5-dependent replication of HIV; details: virus recovered from patients who received AMD3100
# [3] = development abandoned in 2001
# [4] = related to its high positive charge in physiological medium
# [5] = molecular target: CXCR4 (Homo sapiens, UniProt P61073); details: times more active than AMD3100
# Chain of CXCR4 (P61073 whole entry): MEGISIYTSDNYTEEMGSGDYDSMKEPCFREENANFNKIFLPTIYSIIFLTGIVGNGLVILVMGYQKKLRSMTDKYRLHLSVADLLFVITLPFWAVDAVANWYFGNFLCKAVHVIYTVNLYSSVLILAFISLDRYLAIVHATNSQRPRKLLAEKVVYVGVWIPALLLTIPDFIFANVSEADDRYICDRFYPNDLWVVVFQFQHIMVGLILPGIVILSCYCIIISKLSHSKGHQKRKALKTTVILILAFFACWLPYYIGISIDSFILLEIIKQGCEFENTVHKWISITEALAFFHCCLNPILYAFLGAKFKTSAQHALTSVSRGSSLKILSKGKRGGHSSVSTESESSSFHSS
Compound,reduction of the viral load [1],inhibiting the in vivo CCR5-dependent replication of HIV [2],cardiac toxicity [3],oral bioavailability [4],activity relative to AMD3100 [5]
c1cc(CN2CCCNCCNCCCNCC2)ccc1CN1CCCNCCNCCCNCC1 [AMD3100],0.8-0.9 log 10,not effective,possible cardiac toxicity,lack of oral bioavailability,–
c1ccc(CNCc2ccc(CN3CCCNCCNCCCNCC3)cc2)nc1 [AMD3465],–,–,–,–,up to 10 times
